Each structure is given as a SMILES string.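 Compound exposure: 48 hours, 5 concentrations, 96-well plates. At the GI50, growth is halved.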 Calls of active or inactive are those of the source. Rule as the data show it: active = GI50 up to about 1.1 µM and inactive = higher. Where only a bound is given, the exact number is not on record here.

This is an account of results in ChEMBL document CHEMBL1201862, “PubChem BioAssay data set” (2004).

Assay in all cases: growth of human tumour cells (NCI), 48 h
Assay [1] relates to SN12C.
For assay [2], the system named is MOLT-4.
The test system of assay [3] is OVCAR-4.
In assay [4] the test system is SF-539.
The subject of assay [5] is HOP-92.
Assay [6] concerns Malme-3M.
In assay [7] the test system is A549.
Assay [8] deals with SNB-19.
Assay [9] has as its system NCI/ADR-RES.
The test system of assay [10] is OVCAR-8.
In assay [11] the test system is RXF 393.
The subject of assay [12] is OVCAR-3.
For assay [13], the system named is MDA-MB-435.
For assay [14], the system named is SK-MEL-5.
The subject of assay [15] is M14.
Assay [16] has as its system HCC 2998.
In assay [17] the test system is MDA-N.
The subject of assay [18] is SK-MEL-28.
Assay [19] concerns HCT-15.
Assay [20] has as its system SF-295.

In the case of `Oc1ccc(Cl)cc1-c1cc(-c2ccccc2)nc(NCN2CCCCC2)n1`, the GI50 in [1], in assay [2], in assay [3], in [4], in assay [5] and in assay [6] was > 100 µM (inactive) each time. Also, the GI50 in assay [7], in assay [8], in assay [9], in [10], in assay [11] and in assay [12] was > 100 µM (inactive) each time. Further, the GI50 in assay [13] was > 100 µM (inactive); in assay [14], 15.8 µM (inactive); in [15], > 100 µM (inactive); in assay [16], > 100 µM (inactive); in assay [17], > 100 µM (inactive); in assay [18], > 100 µM (inactive). Besides, the GI50 in assay [19] is 5.02 µM.

For the molecule `CCCCNc1nc(O)c2[nH]cnc2n1`, the GI50 in assay [1], in assay [20], in assay [2], in assay [3], in assay [4] and in assay [5] was > 100 µM (inactive) each time. In addition, the GI50 in assay [6], in assay [7], in [8], in assay [9], in [10] and in [11] was > 100 µM (inactive) each time. The GI50 in assay [12], in assay [13], in assay [14], in assay [15], in assay [16] and in assay [17] was > 100 µM (inactive) throughout. In assay [19], this molecule registered a GI50 of over 100 µM.

As for `CCOC(=O)CCN1C(=O)C(=O)N(c2ccc(OC)cc2)C1=S`, the GI50 in assay [1] is > 100 µM (inactive); in assay [20] it was > 100 µM (inactive); in assay [2], > 100 µM (inactive); in assay [3] it was 63 µM (inactive); in assay [4], 97.7 µM (inactive); in assay [5] it was > 100 µM (inactive). Further, the GI50 in assay [6], in assay [7], in assay [8], in assay [9], in assay [10] and in assay [11] was > 100 µM (inactive) each time. In addition, the GI50 in assay [13] is > 100 µM (inactive); in assay [14], > 100 µM (inactive); in [16] it was 69.2 µM (inactive); in assay [17], 97.5 µM (inactive); in [18], > 100 µM (inactive); in [19], over 100 µM.

Consider `N=C(N)c1ccc(C(NC(=O)CNS(=O)(=O)c2ccc3ccccc3c2)P(=O)(Oc2ccccc2)Oc2ccccc2)cc1` (stereo not drawn), for which the GI50 in assay [1] was 27.7 µM (inactive); in assay [2] it was 21 µM (inactive); in [3], > 100 µM (inactive); in assay [4], 14.1 µM (inactive); in assay [5] it was 29.6 µM (inactive); in assay [6], 68.1 µM (inactive). For the same molecule, the GI50 in assay [7] was 54.1 µM (inactive); in assay [8], 47 µM (inactive); in assay [9] it was 69.5 µM (inactive); in [10] it was > 100 µM (inactive); in assay [11], > 100 µM (inactive); in assay [12], > 100 µM (inactive). Also, the GI50 in assay [13] is 35.6 µM (inactive); in [14] it was 39.1 µM (inactive); in assay [15], 45.2 µM (inactive); in assay [16] it was > 100 µM (inactive); in assay [17], 47.6 µM (inactive); in assay [18], > 100 µM (inactive). Besides, the GI50 in assay [19] was 48.5 µM.

As for `c1csc(-c2ccsc2-c2cccs2)c1`, the GI50 in assay [1] was > 100 µM (inactive); in [20], > 100 µM (inactive); in assay [2], 11.9 µM (inactive); in [3], 33 µM (inactive); in [4] it was > 100 µM (inactive); in assay [5] it was > 100 µM (inactive). Further, the GI50 is 19.2 µM (inactive) in assay [7]; 43.3 µM (inactive) in assay [9]; > 100 µM (inactive) in assay [10]; 44.9 µM (inactive) in assay [11]; > 100 µM (inactive) in assay [12]; 24.4 µM (inactive) in assay [13]. In addition, the GI50 in assay [14] was 98.9 µM (inactive); in [15] it was 59.2 µM (inactive); in assay [16] it was 53.7 µM (inactive); in [17], 35.8 µM (inactive); in assay [19] it was 31 µM.

Take `C=C(Cl)CN1c2ccccc2C=Cc2ccccc21`: the GI50 in assay [1] was 20.6 µM (inactive); in assay [20] it was 10.4 µM (inactive); in assay [3] it was 21.3 µM (inactive); in [4], 18 µM (inactive); in [5], 22.3 µM (inactive); in [6] it was 27.5 µM (inactive). Besides, the GI50 in [7] was 15.6 µM (inactive); in [8] it was 22.5 µM (inactive); in [9] it was > 100 µM (inactive); in [10], 14.8 µM (inactive); in assay [11] it was 13 µM (inactive); in [12], 15.7 µM (inactive). The GI50 is 14.9 µM (inactive) in assay [13]; 7.23 µM (inactive) in assay [14]; 17 µM (inactive) in assay [15]; 17.6 µM (inactive) in assay [16]; 15 µM (inactive) in assay [17]; over 100 µM in assay [19].

As to `COc1cc(-c2ccccc2)cn2c1nc1ccccc12`, the GI50 in assay [1] is 19.8 µM (inactive); in [2], 15.7 µM (inactive); in assay [4] it was 26.6 µM (inactive); in assay [5], 14.5 µM (inactive); in assay [6], 20.2 µM (inactive); in [7], 20 µM (inactive). For the same molecule, the GI50 in [8] is 23.1 µM (inactive); in assay [9], 22.8 µM (inactive); in [10] it was 24.8 µM (inactive); in assay [11], 17.3 µM (inactive); in assay [12], 16.4 µM (inactive); in assay [13] it was 18.9 µM (inactive). Besides, the GI50 in assay [14] is 18.5 µM (inactive); in assay [15] it was 20.3 µM (inactive); in [16] it was 15.9 µM (inactive); in [17], 17.7 µM (inactive); in assay [18], 17 µM (inactive); in assay [19] it was 15.3 µM.

Take `CCOC(=O)c1nc2ccc(C(F)(F)F)cc2nc1Nc1ccc(F)cc1`: the GI50 in [1] is > 100 µM (inactive); in assay [20] it was 49.2 µM (inactive); in assay [2], > 100 µM (inactive); in assay [3], > 100 µM (inactive); in [4], 57.5 µM (inactive); in assay [5], 19 µM (inactive). The GI50 in assay [6] was > 100 µM (inactive); in assay [7], 28.8 µM (inactive); in assay [8] it was 43.9 µM (inactive); in [9], > 100 µM (inactive); in [10], 47.6 µM (inactive); in [11] it was 38.5 µM (inactive). Besides, the GI50 in assay [12] is > 100 µM (inactive); in assay [13] it was > 100 µM (inactive); in assay [14], > 10 µM (inactive); in assay [15], > 100 µM (inactive); in assay [17], > 100 µM (inactive); in assay [18] it was > 100 µM (inactive). The molecule also had a GI50 in assay [19] of over 100 µM.

Regarding `COc1ccc2c(c1)/C(=C(\C(Cl)=C(\Cl)N1CCCCC1)[N+](=O)[O-])N2`, the GI50 in assay [1] was > 100 µM (inactive); in assay [20] it was 80.5 µM (inactive); in [2], 27.2 µM (inactive); in [3], 87.5 µM (inactive); in [5] it was > 100 µM (inactive); in [6] it was > 100 µM (inactive). Besides, the GI50 was > 100 µM (inactive) in [7]; > 100 µM (inactive) in assay [8]; > 100 µM (inactive) in assay [9]; 87.5 µM (inactive) in assay [10]; 64 µM (inactive) in assay [11]; 42.5 µM (inactive) in assay [12]. The GI50 in assay [13] is > 100 µM (inactive); in [14], 45.9 µM (inactive); in [15], > 100 µM (inactive); in [16] it was > 100 µM (inactive); in [17], > 100 µM (inactive); in [18], > 100 µM (inactive). This molecule yielded a GI50 in assay [19] of over 100 µM.

For `Cc1c(C)c(S(=O)(=O)N(CCCN)OCCCN)c(C)c2c1OC(C)(C)CC2`, the GI50 in assay [1] is 15.1 µM (inactive); in [20], 16.3 µM (inactive); in assay [2], 4.61 µM (inactive); in assay [3], 8.17 µM (inactive); in [5], 7.5 µM (inactive); in assay [6], 13.6 µM (inactive). In addition, the GI50 is 15.6 µM (inactive) in assay [7]; 11.8 µM (inactive) in assay [8]; 25.7 µM (inactive) in assay [9]; 16.3 µM (inactive) in assay [10]; 9.04 µM (inactive) in assay [11]; 15 µM (inactive) in assay [12]. The GI50 was 15.8 µM (inactive) in [13]; 15.6 µM (inactive) in assay [14]; 14.3 µM (inactive) in assay [15]; 4.14 µM (inactive) in [16]; 15.8 µM (inactive) in assay [17]; 15.2 µM (inactive) in [18]. The GI50 in assay [19] is 15.8 µM.

Regarding `Cc1ccc(C(=O)c2[nH]c(NCc3ccccc3)c(C(=S)Nc3ccccc3)c2N)cc1`, the GI50 in assay [1] was 14.5 µM (inactive); in assay [20], 5.06 µM (inactive); in assay [2], 2.83 µM (inactive); in assay [3], 2.74 µM (inactive); in assay [4], 2.86 µM (inactive); in assay [5] it was 6.58 µM (inactive). The GI50 in assay [7] is 9.2 µM (inactive); in assay [8] it was 14.7 µM (inactive); in assay [9], 2.58 µM (inactive); in assay [10], 12.1 µM (inactive); in assay [11] it was 5.78 µM (inactive); in [12] it was 11.8 µM (inactive). The GI50 in [13] is 3.28 µM (inactive); in assay [15], 1.95 µM (inactive); in assay [16], 1.29 µM (inactive); in assay [17], 3.51 µM (inactive); in assay [18] it was 3.64 µM (inactive); in [19] it was 2.14 µM.
